Laboratory results from patent US10370387B2, “Tricyclic fused thiophene derivatives as JAK inhibitors” (Incyte Corporation, priority 2012, dated 2019).

Each compound was assayed against human JAK2 (Homo sapiens (Human), UniProt O60674) (assay: In vitro JAK kinase assay (HTRF, phosphorylation of biotinylated peptide), JAK2). Conditions: 1 mM ATP.
Format: biochemical
Description: (§1) Compounds herein were tested for inhibitory activity of JAK targets according to the following in vitro assay described in Park et al., Analytical Biochemistry 1999, 269, 94-104. The catalytic domains of human JAK1 (a.a. 837-1142), JAK2 (a.a. 828-1132) and JAK3 (a.a. 781-1124) were expressed using baculovirus in insect cells and purified. The catalytic activity of JAK1, JAK2 or JAK3 was assayed by measuring the phosphorylation of a biotinylated peptide. The phosphorylated peptide was detected by homogenous time resolved fluorescence (HTRF). IC50s of compounds were measured for each kinase in the 40 μL reactions that contain the enzyme, ATP and 500 nM peptide in 50 mM Tris (pH 7.8) buffer with 100 mM NaCl, 5 mM DTT, and 0.1 mg/mL (0.01%) BSA. For the 1 mM IC50 measurements, ATP concentration in the reactions was 1 mM. Reactions were carried out at room temperature for 1 hour and then stopped with 20 μL 45 mM EDTA, 300 nM SA-APC, 6 nM Eu-Py20 in assay buffer (Perkin Elmer, Boston, Mass.). Binding to the Europium labeled antibody took place for 40 minutes and HTRF signal was measured on a PHERA star plate reader (BMG, Cary, N.C.). The Example compounds were each tested in the Example A assay (see Table 1 for data for the compounds of the examples as tested by the assay of Example A at 1 mM ATP).

Chain of human JAK2 (O60674 828-1132): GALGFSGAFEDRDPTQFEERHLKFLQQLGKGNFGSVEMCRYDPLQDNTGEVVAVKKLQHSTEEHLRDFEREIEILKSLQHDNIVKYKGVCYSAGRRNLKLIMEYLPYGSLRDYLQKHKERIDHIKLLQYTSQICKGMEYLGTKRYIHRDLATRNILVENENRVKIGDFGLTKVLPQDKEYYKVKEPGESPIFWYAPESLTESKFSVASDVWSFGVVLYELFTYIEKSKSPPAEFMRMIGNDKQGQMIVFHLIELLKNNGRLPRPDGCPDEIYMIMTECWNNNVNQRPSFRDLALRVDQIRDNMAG

| Compound | IC50 [µM] |
| --- | --- |
| Cc1nn2cnc3ccsc3c2c1-c1ccc(CC#N)cc1 [Example 46, [4-(8-Methylpyrazolo[1,5-c]thieno[2,3-e]pyrimidin-9-yl)phenyl]acetonitrile] | ≤ 1 |

The compounds below were run on human JAK1 (assay: In vitro JAK kinase assay (HTRF, phosphorylation of biotinylated peptide), JAK1). Conditions: ratio of JAK2 IC50 to JAK1 IC50, 1 mM ATP.
Format: biochemical
Description: as §1

| Compound | JAK2/JAK1 |
| --- | --- |
| Cc1nn2cnc3ccsc3c2c1-c1ccc(CC#N)cc1 [Example 46, [4-(8-Methylpyrazolo[1,5-c]thieno[2,3-e]pyrimidin-9-yl)phenyl]acetonitrile] | >3 |
| C[C@@H](O)c1nc2cnc3ccsc3c2n1[C@H]1CC[C@H](CNC(=O)OC2CCOC2)CC1 (stereo partly drawn) [Example 85, Tetrahydrofuran-3-yl [(trans-4-{2-[(1R)-1-hydroxyethyl]-1H-imidazo[4,5-d]thieno[3,2-b]pyridin-1-yl}cyclohexyl)methyl]carbamate] | >10 |
| C[C@@H](O)c1nc2cnc3ccsc3c2n1[C@H]1CCN(CCCC(F)(F)F)C1 [Example 64, (1R)-1-{1-[(3S)-1-(4,4,4-Trifluorobutyl)pyrrolidin-3-yl]-1H-imidazo[4,5-d]thieno[3,2-b]pyridin-2-yl}ethanol] | >10 |
| CC(C)OC(=O)NC[C@H]1CC[C@H](n2c([C@@H](C)O)nc3cnc4ccsc4c32)CC1 [Example 84, Isopropyl [(trans-4-{2-[(1R)-1-hydroxyethyl]-1H-imidazo[4,5-d]thieno[3,2-b]pyridin-1-yl}cyclohexyl)methyl]carbamate] | >10 |
| N#CC[C@H]1CC[C@H](n2c(CO)nc3cnc4ccsc4c32)CO1 [Example 91, {(2R,5S)-5-[2-(Hydroxymethyl)-1H-imidazo[4,5-d]thieno[3,2-b]pyridin-1-yl]tetrahydro-2H-pyran-2-yl}acetonitrile] | >10 |
| C[C@H](O)c1nc2cnc3ccsc3c2n1[C@H]1CC[C@H](CC#N)OC1 [Example 45, ((2R,5S)-5-{2-[(1S)-1-Hydroxyethyl]-1H-imidazo[4,5-d]thieno[3,2-b]pyridin-1-yl}tetrahydro-2H-pyran-2-yl)acetonitrile] | >10 |
| C[C@@H](O)c1nc2cnc3ccsc3c2n1C1CCNCC1F (stereo partly drawn) [9 (2nd peak), (1R)-1-[1-(3-Fluoropiperidin-4-yl)-1H-imidazo[4,5-d]thieno[3,2-b]pyridin-2-yl]ethanol] | >10 |
| Cc1nc2cnc3ccsc3c2n1[C@H]1CC[C@H](CC#N)CC1 [Example 48, [trans-4-(2-Methyl-1H-imidazo[4,5-d]thieno[3,2-b]pyridin-1-yl)cyclohexyl]acetonitrile] | >7 |
| CN1CC(c2nc3cnc4ccsc4c3n2[C@H]2CC[C@H](CC#N)CC2)C1 [Example 29, {trans-4-[2-(1-Methylazetidin-3-yl)-1H-imidazo[4,5-d]thieno[3,2-b]pyridin-1-yl]cyclohexyl}acetonitrile] | >9 |
| C[C@@H](O)c1nc2cnc3ccsc3c2n1C1CCC(NCCC#N)CC1 (single isomer, unassigned) [30 (first peak)] | >2 |
| C[C@@H](O)c1nc2cnc3ccsc3c2n1[C@H]1CCCN(C(=O)CCc2ccccc2)C1 [Example 57] | >10 |
| C[C@@H](O)c1nc2cnc3ccsc3c2n1[C@H]1CC[C@H](CCC#N)CC1 [Example 8, 3-(trans-4-{2-[(1R)-1-Hydroxyethyl]-1H-imidazo[4,5-d]thieno[3,2-b]pyridin-1-yl}cyclohexyl)propanenitrile] | >10 |
| CC(N)c1nc2cnc3ccsc3c2n1[C@H]1CC[C@H](CC#N)OC1.O=C(O)C(F)(F)F (stereo partly drawn) [Example 68, {(2R,5S)-5-[2-(1-Aminoethyl)-1H-imidazo[4,5-d]thieno[3,2-b]pyridin-1-yl]tetrahydro-2H-pyran-2-yl}acetonitrile trifluoroacetate] | >10 |
| N#CCc1nc2cnc3ccsc3c2n1[C@H]1CC[C@H](CC#N)CC1 [Example 90, {1-[trans-4-(Cyanomethyl)cyclohexyl]-1H-imidazo[4,5-d]thieno[3,2-b]pyridin-2-yl}acetonitrile] | >10 |
| C[C@@H](O)c1nc2cnc3ccsc3c2n1[C@H]1CCN(CCCCC#N)C1 [Example 66, 5-((3S)-3-{2-[(1R)-1-Hydroxyethyl]-1H-imidazo[4,5-d]thieno[3,2-b]pyridin-1-yl}pyrrolidin-1-yl)pentanenitrile] | >10 |
| N#CCc1nc2cnc3ccsc3c2n1[C@H]1CC[C@@H](CC#N)OC1 [Example 74, {(2S,5S)-5-[2-(Cyanomethyl)-1H-imidazo[4,5-d]thieno[3,2-b]pyridin-1-yl]tetrahydro-2H-pyran-2-yl}acetonitrile] | >10 |
| C[C@@H](O)c1nc2cnc3ccsc3c2n1[C@H]1CC[C@@H](C#N)CC1 [Example 7, cis-4-{2-[(1R)-1-Hydroxyethyl]-1H-imidazo[4,5-d]thieno[3,2-b]pyridin-1-yl}cyclohexanecarbonitrile] | >10 |
| CC(C)OC(=O)NC[C@H]1CC[C@H](n2c([C@@H](C)O)nc3cnc4ccsc4c32)CO1 [Example 76, Isopropyl [((2R,5S)-5-{2-[(1R)-1-hydroxyethyl]-1H-imidazo[4,5-d]thieno[3,2-b]pyridin-1-yl}tetrahydro-2H-pyran-2-yl)methyl]carbamate] | >10 |
| CCOC(=O)NC[C@H]1CC[C@H](n2c(CC#N)nc3cnc4ccsc4c32)CC1 [Example 87, Ethyl ({trans-4-[2-(cyanomethyl)-1H-imidazo[4,5-d]thieno[3,2-b]pyridin-1-yl]cyclohexyl}methyl)carbamate] | >10 |
| CC(C)c1nc2cnc3ccsc3c2n1[C@H]1CC[C@H](CC#N)OC1 [Example 42, [(2R,5S)-5-(2-Isopropyl-1H-imidazo[4,5-d]thieno[3,2-b]pyridin-1-yl)tetrahydro-2H-pyran-2-yl]acetonitrile] | >10 |
| Cc1nc2cnc3ccsc3c2n1[C@H]1CC[C@H](CC#N)OC1 [Example 38, [(2R,5S)-5-(2-Methyl-1H-imidazo[4,5-d]thieno[3,2-b]pyridin-1-yl)tetrahydro-2H-pyran-2-yl]acetonitrile] | >10 |
| ((1R,2S,4S)-2-Hydroxy-4-{2-[(1R)-1-hydroxyethyl]-1H-imidazo[4,5-d]thieno[3,2-b]pyridin-1-yl}cyclohexyl)acetonitrile trifluoacetate and ((1S,2R,4R)-2-hydroxy-4-{2-[(1R)-1-hydroxyethyl]-1H-imidazo[4,5-d]thieno[3,2-b]pyridin-1-yl}cyclohexyl)acetonitrile trifluoacetate [37 (second peak)] | >10 |
| C[C@@H](O)c1nc2cnc3ccsc3c2n1[C@H]1CC[C@H](CC#N)OC1 [Example 20, ((2R,5S)-5-{2-[(1R)-1-Hydroxyethyl]-1H-imidazo[4,5-d]thieno[3,2-b]pyridin-1-yl}tetrahydro-2H-pyran-2-yl)acetonitrile] | >10 |
| C[C@@H](O)c1nc2cnc3ccsc3c2n1[C@H]1CC[C@H](CC#N)[C@H](N)C1 [Example 67, ((1R,2R,4S)-2-Amino-4-{2-[(1R)-1-hydroxyethyl]-1H-imidazo[4,5-d]thieno[3,2-b]pyridin-1-yl}cyclohexyl)acetonitrile] | >10 |
| C[C@@H](O)c1nc2cnc3ccsc3c2n1C1CCC(O)(CC#N)CC1 (single isomer, unassigned) [24 (second peak)] | >10 |
| CC(=O)NC(C)c1nc2cnc3ccsc3c2n1[C@H]1CC[C@H](CC#N)OC1 (stereo partly drawn) [Example 69, N-(1-{1-[(3S,6R)-6-(Cyanomethyl)tetrahydro-2H-pyran-3-yl]-1H-imidazo[4,5-d]thieno[3,2-b]pyridin-2-yl}ethyl) acetamide] | >10 |
| N#CC[C@H]1CC[C@H](n2c(C3CNC3)nc3cnc4ccsc4c32)CC1 [Example 28, [trans-4-(2-Azetidin-3-yl-1H-imidazo[4,5-d]thieno[3,2-b]pyridin-1-yl)cyclohexyl]acetonitrile] | >7 |
| C[C@@H](O)c1nc2cnc3ccsc3c2n1[C@H]1CC[C@H](NCC(F)(F)F)CC1 [Example 4, (1R)-1-(1-{trans-4-[(2,2,2-Trifluoroethyl)amino]cyclohexyl}-1H-imidazo[4,5-d]thieno[3,2-b]pyridin-2-yl)ethanol] | >10 |
| CCc1nc2cnc3ccsc3c2n1[C@H]1CC[C@H](CC#N)CC1 [Example 47, [trans-4-(2-Ethyl-1H-imidazo[4,5-d]thieno[3,2-b]pyridin-1-yl)cyclohexyl]acetonitrile] | >10 |
| [(1R,2S,4S)-4-(2-Methyl-1H-imidazo[4,5-d]thieno[3,2-b]pyridin-1-yl)-2-hydroxycyclohexyl]acetonitrile and [(1S,2R,4R)-4-(2-methyl-1H-imidazo[4,5-d]thieno[3,2-b]pyridin-1-yl)-2-hydroxycyclohexyl]acetonitrile [41 (first peak)] | >10 |

These compounds were tested against human JAK1 (Homo sapiens, UniProt P23458) in the same assay as above. Conditions: 1 mM ATP.
Format: biochemical
Description: as §1

| Compound | IC50 [µM] |
| --- | --- |
| Cc1nn2cnc3ccsc3c2c1-c1ccc(CC#N)cc1 [Example 46, [4-(8-Methylpyrazolo[1,5-c]thieno[2,3-e]pyrimidin-9-yl)phenyl]acetonitrile] | ≤ 0.1 |
